ChEMBL document CHEMBL4325859, “Research advances on anticancer activities of matrine and its derivatives: An updated overview” (Eur J Med Chem, 2019)

Assays:
MCF7 [1] = experiment: Antiproliferative activity against human MCF7 cells after 24 hrs relative to control; assay type: functional
MCF7 [2] = experiment: Antiproliferative activity against human MCF7 cells after 72 hrs relative to control; assay type: functional
HepG2 [3] = experiment: Induction of apoptosis in human HepG2 cells at 2 mg/ml by Annexin V-FITC/propidium iodide staining based flow cytometry (reference value: 0.14%); assay type: functional
HepG2 [4] = experiment: Antiproliferative activity against human HepG2 cells after 48 hrs by MTT assay; assay type: functional, cell-based; conditions: HepG2, 48 h
Bel-7402 = experiment: Antiproliferative activity against human Bel7402 cells after 48 hrs by MTT assay; assay type: functional, cell-based; conditions: Bel-7402, 48 h
SGC-7901 = experiment: Induction of apoptosis in human SGC7901 cells at […] after 48 hrs by propidium iodide staining based flow cytometry (reference value: 3.54 +/- 0.47%); assay type: functional
BXPC-3 = experiment: Induction of apoptosis in human BxPC3 cells at 0.75 mg/ml by flow cytometry (reference value: 2.81%); assay type: functional
PANC-1 [5] = experiment: Induction of apoptosis in human PANC1 cells at 0.75 mg/ml by flow cytometry (reference value: 4.13%); assay type: functional
PANC-1 [6] = experiment: Induction of apoptosis in human PANC1 cells at 1.25 mg/ml by flow cytometry (reference value: 4.13%); assay type: functional
PC-3 [7] = experiment: Induction of apoptosis in human PC3 cells assessed as late apoptotic cells at 50 mg/mL (reference value: 2.5%); assay type: functional
PC-3 [8] = experiment: Induction of apoptosis in human PC3 cells assessed as late apoptotic cells at 75 mg/mL (reference value: 2.5%); assay type: functional
CCRF-CEM = experiment: Antiproliferative activity against human CCRF-CEM cells after 72 hrs by WST1 assay; assay type: functional, cell-based
U-937 = experiment: Induction of apoptosis in human U937 cells after 24 hrs by Annexin V-FITC/propidium iodide staining based flow cytometry relative to control; assay type: functional
NIH3T3 = experiment: Antiproliferative activity against mouse NIH/3T3 cells after 72 hrs by MTT assay; assay type: cell-based; conditions: NIH3T3, 72 h
RPMI-8226 [9] = experiment: Growth inhibition of human RPMI8226 cells at 1000 mg/L after 48 hrs by MTT assay relative to control; assay type: functional; conditions: RPMI-8226, 48 h, read-out: GI
RPMI-8226 [10] = experiment: Induction of apoptosis in human RPMI8226 cells at 1500 mg/L after 48 hrs by Annexin V/propidium iodide staining based flow cytometry (reference value: 3.02 +/- 1.19%); assay type: functional
RPMI-8226 [11] = experiment: Induction of apoptosis in human RPMI8226 cells at 1.5 g/L after 48 hrs by Annexin V-FITC/propidium iodide staining based flow cytometry (Rvb < 3%); assay type: functional
KYSE-150 cell line = experiment: Antiproliferative activity against human KYSE-150 cells assessed as cell viability at 2.5 mg/ml after 24 hrs by MTT assay relative to control; assay type: functional; conditions: KYSE-150, 24 h, read-out: Activity
LoVo = experiment: Antiproliferative activity against human LoVo cells after 48 hrs by MTT assay; assay type: functional, cell-based
HT-29 [12] = experiment: Growth inhibition of human HT-29 cells at 32 ml/L after 24 hrs by MTT assay relative to control; assay type: functional
HT-29 [13] = experiment: Growth inhibition of human HT-29 cells at 8 ml/L after 36 hrs by MTT assay relative to control; assay type: functional
HT-29 [14] = experiment: Growth inhibition of human HT-29 cells at 32 ml/L after 36 hrs by MTT assay relative to control; assay type: functional
HT-29 [15] = experiment: Growth inhibition of human HT-29 cells at 16 ml/L after 48 hrs by MTT assay relative to control; assay type: functional
HT-29 [16] = experiment: Growth inhibition of human HT-29 cells at 32 ml/L after 48 hrs by MTT assay relative to control; assay type: functional
HT-29 [17] = experiment: Growth inhibition of human HT-29 cells at 2 mg/ml by MTT assay relative to control; assay type: functional; conditions: read-out: GI
[18] = Antiproliferative activity against human GBC-SD cells assessed as cell survival at 1 mmol/L up to 72 hrs by MTT assay (reference value: 100%); assay type: functional; conditions: read-out: Survival
[19] = Antiproliferative activity against human GBC-SD cells after 48 hrs by MTT assay; assay type: functional, cell-based
UMR108 [20] = experiment: Growth inhibition of rat UMR108 cells assessed as cell proliferation at 0.5 mg/ml after 48 hrs by MTT assay (reference value: 0.404 +/- 0.008%); assay type: functional; conditions: UMR108, 48 h, read-out: Activity
UMR108 [21] = experiment: Growth inhibition of rat UMR108 cells assessed as cell proliferation at 1 mg/ml after 72 hrs by MTT assay (reference value: 0.403 +/- 0.009%); assay type: functional; conditions: UMR108, 72 h, read-out: Activity
[22] = Growth inhibition of human GRC1 cells at 1.5 g/L after 24 hrs by MTT assay relative to control; assay type: functional; conditions: read-out: GI
[23] = Growth inhibition of human GRC1 cells at 0.3 g/L after 48 hrs by MTT assay relative to control; assay type: functional; conditions: read-out: GI
[24] = Growth inhibition of human GRC1 cells at 0.8 g/L after 72 hrs by MTT assay relative to control; assay type: functional; conditions: read-out: GI
[25] = Growth inhibition of human GRC1 cells at 0.5 g/L after 96 hrs by MTT assay relative to control; assay type: functional; conditions: read-out: GI
[26] = Growth inhibition of human GRC1 cells at 0.8 g/L after 96 hrs by MTT assay relative to control; assay type: functional; conditions: read-out: GI
D341 cell line [27] = experiment: Growth inhibition of human D341 cells at 1.5 mg/ml after 72 hrs by CCK8 assay relative to control; assay type: functional; conditions: D341, 72 h, read-out: GI
D341 cell line [28] = experiment: Growth inhibition of human D341 cells at 2 mg/ml after 72 hrs by CCK8 assay relative to control; assay type: functional; conditions: D341, 72 h, read-out: GI
D341 cell line [29] = experiment: Induction of apoptosis in human D341 cells at 0.5 to 2 mg/ml after 24 to 72 hrs by Annexin V-FITC/propidium iodide staining based flow cytometry (reference value: 5.74 +/- 0.09%); assay type: functional
HT-29 [30] = experiment: Growth inhibition of human HT-29 cells at 16 mg/ml after 48 hrs by MTT assay relative to control; assay type: functional; conditions: HT-29, 48 h, read-out: GI
HT-29 [31] = experiment: Growth inhibition of human HT-29 cells at 32 mg/ml after 48 hrs by MTT assay relative to control; assay type: functional; conditions: HT-29, 48 h, read-out: GI
M21 = experiment: Induction of apoptosis in human M21 cells at 0.2 mg/ml after 48 hrs by Annexin V-FITC/propidium iodide staining based flow cytometry relative to control; assay type: functional
HeLa = experiment: Induction of apoptosis in human HeLa cells at 50 ug/ml after 48 hrs by Annexin V-FITC/propidium iodide staining based flow cytometry relative to control; assay type: functional
C-33-A = experiment: Induction of apoptosis in human C33A cells at 100 ug/ml after 48 hrs by Annexin V-FITC/propidium iodide staining based flow cytometry relative to control; assay type: functional
Ca-Ski = experiment: Antiproliferative activity against human CaSki cells after 48 hrs by CCK8 assay; assay type: functional, cell-based
HepG2 [32] = experiment: Antiproliferative activity against human HepG2 cells by MTT assay; assay type: functional, cell-based

For `O=C1CCC[C@@H]2[C@H]3CCCN4CCC[C@@H](CN12)[C@@H]34` [MATRINE], the Activity (MCF7 [1]) was 6.01 - 37.01%, the Activity (MCF7 [2]) was 10.86 - 70.23% and the Activity (HepG2 [3]) was 38.8%. The IC50 (HepG2 [4]) was 3.22 mM, the IC50 (Bel-7402) was 3.22 mM and the Activity (SGC-7901) was 34.59%. It also gave an Activity (BXPC-3) of 48.83%, an Activity (PANC-1 [5]) of 24.56% and an Activity (PANC-1 [6]) of 42.55%. It also gave an Activity (PC-3 [7]) of 21%, an Activity (PC-3 [8]) of 15.1% and an IC50 (CCRF-CEM) of 9.63 mM. For the same compound, the Activity (U-937) was 37.2%, the IC50 (NIH3T3) was > 8.06 mM and the inhibition of growth at 1000 µg/mL (RPMI-8226 [9]) was 30.4%. For the same compound, the Activity (RPMI-8226 [10]) was 31.1%, the Activity (RPMI-8226 [11]) was 32.89% and the viability at 2500 µg/mL (KYSE-150 cell line) was 40.4%. The IC50 (LoVo) was 2.97 mM, the “growth inhibition (GI)” value (HT-29 [12]) was 71.62% and the “growth inhibition (GI)” value (HT-29 [13]) was 58.2%. The “growth inhibition (GI)” value (HT-29 [14]) was 77.14%, the “growth inhibition (GI)” value (HT-29 [15]) was 75.75% and the “growth inhibition (GI)” value (HT-29 [16]) was 84.2%. The inhibition of growth at 2000 µg/mL (HT-29 [17]) was 52.9%, the viability at 1000 µM [18] was 72.1% and the IC50 [19] was 2 mM. For the same compound, the growth at 500 µg/mL (UMR108 [20]) was 0.313%, the growth at 1000 µg/mL (UMR108 [21]) was 0.195% and the inhibition of growth at 1500 µg/mL [22] was 31.6%. The inhibition of growth at 300 µg/mL [23] was 8.8%, the inhibition of growth at 800 µg/mL [24] was 25.4% and the inhibition of growth at 500 µg/mL [25] was 22.4%. For the same compound, the inhibition of growth at 800 µg/mL [26] was 36.2%, the inhibition of growth at 1500 µg/mL (D341 cell line [27]) was 47.5% and the inhibition of growth at 2000 µg/mL (D341 cell line [28]) was 59.3%. It also gave an Activity (D341 cell line [29]) of 56.1%, an inhibition of growth at 16000 µg/mL (HT-29 [30]) of 75.8% and an inhibition of growth at 32000 µg/mL (HT-29 [31]) of 84.2%. The Activity (M21) was 24.1%, the Activity (HeLa) was 19.53% and the Activity (C-33-A) was 28.91%. The IC50 (Ca-Ski) was 5.8 mM and the IC50 (HepG2 [32]) was 8.07 mM.
